Reference: ChEMBL document CHEMBL4354825, “Design and Synthesis of Basic Selective Estrogen Receptor Degraders for Endocrine Therapy Resistant Breast Cancer” (J Med Chem, 2019)

Test: MRT (0 to infinity) in CD-1 mouse at 5 mg/kg, iv measured upto 24 hrs by LC-MS/MS analysis
Conditions: in vivo

MRT: 1.07 h
SMILES: Cc1cc(F)cc(C)c1C(=O)c1sc2cc(O)ccc2c1Oc1ccc(OC2CN(CCCF)C2)cc1
